According to patent publication US20230085307A1, “PYRIDAZINONE COMPOUND AND HERBICIDE” (NISSAN CHEMICAL CORPORATION, priority 2019, published 2023):

Assays:
[1] = test system: late watergrass; assay: Test Example 1: herbicidal activity, application before weed generation under submerged conditions (Table 16, symbol A); format: in vivo, late watergrass (Echinochloa oryzicola)
In short: (§1)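 Emulsion formulation, water-diluted to set dose, was put onto the flooded surface (4 cm depth, alluvial soil) the same day weeds were sown and 2.5-leaf rice transplanted. After 3 weeks at 25-30 °C under glass, each species was rated 0 (≤5% kill) to 5 (≥90% kill).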

[2] = test system: Japanese bulrush; assay: Test Example 1: herbicidal activity, application before weed generation under submerged conditions (Table 16, symbol B); format: in vivo, Japanese bulrush (Schoenoplectus juncoides)
In short: as §1

[3] = test system: late watergrass; assay: Test Example 2: herbicidal activity, application during weed generation under submerged conditions (Table 17, symbol A); format: in vivo, late watergrass (Echinochloa oryzicola); conditions: application during weed generation, submerged conditions
In short: (§2)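 Herbicide emulsion, diluted with water to the chosen amount, is applied onto 4 cm floodwater over alluvial soil where the weeds were co-sown and raised at 25–30° C. Application timing: 1–2 leaves. Assessment: three weeks afterwards.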

[4] = test system: oval-leafed pondweed; assay: Test Example 2: herbicidal activity, application during weed generation under submerged conditions (Table 17, symbol C); format: in vivo, oval-leafed pondweed (Monochoria vaginalis); conditions: application during weed generation, submerged conditions
In short: as §2

[5] = test system: barnyard grass; assay: Test Example 3: herbicidal effect by foliage application, Wagner pot (Table 18, symbol H); format: in vivo, barnyard grass (Echinochloa crus-galli)
In short: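 Plants were sown in alluvial soil held under 0.1–0.5 cm standing water and grown 14 days in a greenhouse at 25–30 °C. An emulsifiable formulation, water-diluted to the set dose, was then sprayed onto the foliage, and effects were scored three weeks later using previously defined criteria.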

[6] = test system: southern crabgrass; assay: Test Example 4: herbicidal effect by soil treatment (Table 19, symbol F); format: in vivo, southern crabgrass (Digitaria ciliaris)
In short: (§3)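 Pre-emergence style soil spray: seeds under ~1.5 cm sterilized diluvial soil received a uniform coat of emulsion diluted to the predetermined herbicide amount. Greenhouse 25–30° C; readout at week three on previously defined criteria.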

[7] = test system: barnyard grass; assay: Test Example 4: herbicidal effect by soil treatment (Table 19, symbol H); format: in vivo, barnyard grass (Echinochloa crus-galli)
In short: as §3

[8] = test system: blackgrass; assay: Test Example 4: herbicidal effect by soil treatment (Table 19, symbol J); format: in vivo, blackgrass (Alopecurus myosuroides)
In short: as §3

[9] = test system: chickweed; assay: Test Example 4: herbicidal effect by soil treatment (Table 19, symbol P); format: in vivo, common chickweed (Stellaria media)
In short: as §3

[10] = test system: southern crabgrass; assay: Test Example 5: herbicidal effect by foliage application, plastic box (Table 20, symbol F); format: in vivo, southern crabgrass (Digitaria ciliaris); conditions: foliage application, three weeks after application
In short: (§4)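 Plants were sown into sterilized diluvial soil under about 1.5 cm cover and kept in a greenhouse at 25° C. to 30° C. Fourteen days on, foliage received an even spray of the diluted emulsion. Herbicidal or crop effect was judged three weeks afterwards.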

[11] = test system: green foxtail; assay: Test Example 5: herbicidal effect by foliage application, plastic box (Table 20, symbol G); format: in vivo, green foxtail (Setaria viridis); conditions: foliage application, three weeks after application
In short: as §4

[12] = test system: wild oat; assay: Test Example 5: herbicidal effect by foliage application, plastic box (Table 20, symbol I); format: in vivo, wild oat (Avena fatua); conditions: foliage application, three weeks after application
In short: as §4

[13] = test system: windgrass; assay: Test Example 5: herbicidal effect by foliage application, plastic box (Table 20, symbol L); format: in vivo, windgrass (Apera spica-venti); conditions: foliage application, three weeks after application
In short: as §4

[14] = test system: lambsquarters; assay: Test Example 5: herbicidal effect by foliage application, plastic box (Table 20, symbol O); format: in vivo, lambsquarters (Chenopodium album); conditions: foliage application, three weeks after application
In short: as §4

[15] = test system: persian speedwell; assay: Test Example 5: herbicidal effect by foliage application, plastic box (Table 20, symbol R); format: in vivo, Persian speedwell (Veronica persica); conditions: foliage application, three weeks after application
In short: as §4

[16] = amount of applied herbicide 320 g/ha
[17] = amount of applied herbicide 390 g/ha

SMILES	Herbicidal effect, A: late watergrass [1, 16]	Herbicidal effect, B: Japanese bulrush [2, 16]	herbicidal effect rating, A: late watergrass ([3]; AAH 320 g/ha)	herbicidal effect rating, C: oval-leafed pondweed ([4]; AAH 320 g/ha)	Herbicidal effect on H (barnyard grass), foliage application [5, 16]	F: southern crabgrass, herbicidal effect grade [6, 16]	H: barnyard grass, herbicidal effect grade [7, 16]	J: blackgrass, herbicidal effect grade [8, 16]	P: chickweed, herbicidal effect grade [9, 16]	herbicidal effect on southern crabgrass (F) ([10]; 320 g/ha)	herbicidal effect on green foxtail (G) ([11]; 320 g/ha)	herbicidal effect on wild oat (I) ([12]; 320 g/ha)	herbicidal effect on windgrass (L) ([13]; 320 g/ha)	herbicidal effect on lambsquarters (O) ([14]; 320 g/ha)	herbicidal effect on persian speedwell (R) ([15]; 320 g/ha)	also measured
CCOc1ccc2c(-c3c(O)c(C)nn(C)c3=O)c(-c3ccccc3OC)sc2c1Cl [7-003]	2 (Herbicidal rate of 20% or more and less than 40%)	3 (Herbicidal rate of 40% or more and less than 70%)	0 (Herbicidal rate of 5% or less (almost no effect))	0 (Herbicidal rate of 5% or less (almost no effect))	4 (Herbicidal rate of 70% or more and less than 90%)	0 (Herbicidal rate of 5% or less (almost no effect))	0 (Herbicidal rate of 5% or less (almost no effect))	0 (Herbicidal rate of 5% or less (almost no effect))	4 (Herbicidal rate of 70% or more and less than 90%)	1 (Herbicidal rate of 5% or more and less than 20%)	4 (Herbicidal rate of 70% or more and less than 90%)	0 (Herbicidal rate of 5% or less (almost no effect))	3 (Herbicidal rate of 40% or more and less than 70%)	5 (Herbicidal rate of 90% or more (almost completely withered))	5 (Herbicidal rate of 90% or more (almost completely withered))	–
CCOc1ccccc1-c1sc2c(Cl)c(OCC)ccc2c1-c1c(O)c(C)nn(C)c1=O [7-004]	3 (Herbicidal rate of 40% or more and less than 70%)	3 (Herbicidal rate of 40% or more and less than 70%)	3 (Herbicidal rate of 40% or more and less than 70%)	2 (Herbicidal rate of 20% or more and less than 40%)	5 (Herbicidal rate of 90% or more (almost completely withered))	3 (Herbicidal rate of 40% or more and less than 70%)	3 (Herbicidal rate of 40% or more and less than 70%)	0 (Herbicidal rate of 5% or less (almost no effect))	4 (Herbicidal rate of 70% or more and less than 90%)	5 (Herbicidal rate of 90% or more (almost completely withered))	5 (Herbicidal rate of 90% or more (almost completely withered))	0 (Herbicidal rate of 5% or less (almost no effect))	0 (Herbicidal rate of 5% or less (almost no effect))	4 (Herbicidal rate of 70% or more and less than 90%)	5 (Herbicidal rate of 90% or more (almost completely withered))	–
Cc1nn(C)c(=O)c(-c2c(-c3ccc(OCC(F)(F)F)cc3)oc3ccccc23)c1O [8-005]	5 (Herbicidal rate of 90% or more (almost completely withered))	5 (Herbicidal rate of 90% or more (almost completely withered))	4 (Herbicidal rate of 70% or more and less than 90%)	3 (Herbicidal rate of 40% or more and less than 70%)	5 (Herbicidal rate of 90% or more (almost completely withered))	4 (Herbicidal rate of 70% or more and less than 90%)	5 (Herbicidal rate of 90% or more (almost completely withered))	3 (Herbicidal rate of 40% or more and less than 70%)	2 (Herbicidal rate of 20% or more and less than 40%)	5 (Herbicidal rate of 90% or more (almost completely withered))	5 (Herbicidal rate of 90% or more (almost completely withered))	0 (Herbicidal rate of 5% or less (almost no effect))	3 (Herbicidal rate of 40% or more and less than 70%)	5 (Herbicidal rate of 90% or more (almost completely withered))	5 (Herbicidal rate of 90% or more (almost completely withered))	–
CSCCOc1ccc(-c2oc3ccccc3c2-c2c(O)c(C)nn(C)c2=O)cc1 [8-008]	5 (Herbicidal rate of 90% or more (almost completely withered))	5 (Herbicidal rate of 90% or more (almost completely withered))	2 (Herbicidal rate of 20% or more and less than 40%)	2 (Herbicidal rate of 20% or more and less than 40%)	5 (Herbicidal rate of 90% or more (almost completely withered))	3 (Herbicidal rate of 40% or more and less than 70%)	5 (Herbicidal rate of 90% or more (almost completely withered))	0 (Herbicidal rate of 5% or less (almost no effect))	5 (Herbicidal rate of 90% or more (almost completely withered))	5 (Herbicidal rate of 90% or more (almost completely withered))	5 (Herbicidal rate of 90% or more (almost completely withered))	5 (Herbicidal rate of 90% or more (almost completely withered))	4 (Herbicidal rate of 70% or more and less than 90%)	3 (Herbicidal rate of 40% or more and less than 70%)	5 (Herbicidal rate of 90% or more (almost completely withered))	–
CCCC(=O)Oc1c(C)nn(C)c(=O)c1-c1c(-c2ccc(F)cc2)oc2ccc(C)cc12 [9-005]	–	–	–	–	–	–	–	–	–	–	–	–	–	–	–	Herbicidal effect, A: late watergrass [1, 17]: 5 (Herbicidal rate of 90% or more (almost completely withered)); Herbicidal effect, B: Japanese bulrush [2, 17]: 4 (Herbicidal rate of 70% or more and less than 90%); herbicidal effect rating, A: late watergrass ([3]; AAH 390 g/ha): 0 (Herbicidal rate of 5% or less (almost no effect)); herbicidal effect rating, C: oval-leafed pondweed ([4]; AAH 390 g/ha): 3 (Herbicidal rate of 40% or more and less than 70%); Herbicidal effect on H (barnyard grass), foliage application [5, 17]: 3 (Herbicidal rate of 40% or more and less than 70%); F: southern crabgrass, herbicidal effect grade [6, 17]: 0 (Herbicidal rate of 5% or less (almost no effect)); H: barnyard grass, herbicidal effect grade [7, 17]: 0 (Herbicidal rate of 5% or less (almost no effect)); J: blackgrass, herbicidal effect grade [8, 17]: 0 (Herbicidal rate of 5% or less (almost no effect)); P: chickweed, herbicidal effect grade [9, 17]: 5 (Herbicidal rate of 90% or more (almost completely withered)); herbicidal effect on southern crabgrass (F) ([10]; 390 g/ha): 0 (Herbicidal rate of 5% or less (almost no effect)); herbicidal effect on green foxtail (G) ([11]; 390 g/ha): 0 (Herbicidal rate of 5% or less (almost no effect)); herbicidal effect on wild oat (I) ([12]; 390 g/ha): 0 (Herbicidal rate of 5% or less (almost no effect)); herbicidal effect on windgrass (L) ([13]; 390 g/ha): 0 (Herbicidal rate of 5% or less (almost no effect)); herbicidal effect on lambsquarters (O) ([14]; 390 g/ha): 3 (Herbicidal rate of 40% or more and less than 70%); herbicidal effect on persian speedwell (R) ([15]; 390 g/ha): 5 (Herbicidal rate of 90% or more (almost completely withered))
